Literature values in article PMC7362765 (Accounts of chemical research, 2019).

Tested on: DF3
Assay: oxidation to quinone […], saturation kinetics
Type: biochemical, synthetic construct
Conditions: diiron form, ambient O2; recounted from the authors' own ref 19

Km: 2100 µM
SMILES: CC(C)(C)c1cc(O)c(O)c(C(C)(C)C)c1 [compound 6, 3,5-di-tert-butylcatechol]
